Patent US6737383B1, “Herbicidal oxadiazolidines” (priority 1999, dated 2004)

Key:
cocklebur = experiment: Test B pre/postemergence cocklebur; type: in vivo, Xanthium strumarium; details: for Cocklebur plant response rating: scale of 0 to 10 where 0 is no effect and 10 is complete control
In short: (§1)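 Test chemicals in a non-phytotoxic solvent mixture with surfactant were sprayed preemergence onto planted seeds and postemergence onto plants 2 to 18 cm tall (1- to 4-leaf stage). After twelve to sixteen days in a greenhouse, injury was visually rated against untreated controls from 0 (no effect) to 10 (complete control).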

corn = experiment: Test B pre/postemergence corn; type: in vivo, Zea mays; details: for Corn plant response rating: scale of 0 to 10 where 0 is no effect and 10 is complete control
In short: as §1

crabgrass = experiment: Test B pre/postemergence crabgrass; type: in vivo, Digitaria sanguinalis; details: for Crabgrass plant response rating: scale of 0 to 10 where 0 is no effect and 10 is complete control
In short: as §1

giant foxtail = experiment: Test B pre/postemergence giant foxtail; type: in vivo, Setaria faberii; details: for Giant foxtail plant response rating: scale of 0 to 10 where 0 is no effect and 10 is complete control
In short: as §1

morningglory = experiment: Test B pre/postemergence morningglory; type: in vivo, Ipomoea hederacea; details: for Morningglory plant response rating: scale of 0 to 10 where 0 is no effect and 10 is complete control
In short: as §1

pigweed = experiment: Test B pre/postemergence pigweed; type: in vivo, Amaranthus retroflexus; details: for Redroot pigweed plant response rating: scale of 0 to 10 where 0 is no effect and 10 is complete control
In short: as §1

rape = experiment: Test B pre/postemergence rape; type: in vivo, Brassica napus; details: for Rape plant response rating: scale of 0 to 10 where 0 is no effect and 10 is complete control
In short: as §1

soybean = experiment: Test B pre/postemergence soybean; type: in vivo, Glycine max; details: for Soybean plant response rating: scale of 0 to 10 where 0 is no effect and 10 is complete control
In short: as §1

sugar beet = experiment: Test B pre/postemergence sugar beet; type: in vivo, Beta vulgaris; details: for Sugarbeets plant response rating: scale of 0 to 10 where 0 is no effect and 10 is complete control
In short: as §1

velvetleaf = experiment: Test B pre/postemergence velvetleaf; type: in vivo, Abutilon theophrasti; details: for Velvetleaf plant response rating: scale of 0 to 10 where 0 is no effect and 10 is complete control
In short: as §1

wheat = experiment: Test B pre/postemergence wheat; type: in vivo, Triticum aestivum; details: for Wheat plant response rating: scale of 0 to 10 where 0 is no effect and 10 is complete control
In short: as §1

wild oat = experiment: Test B pre/postemergence wild oat; type: in vivo, Avena fatua; details: for Wild oats plant response rating: scale of 0 to 10 where 0 is no effect and 10 is complete control
In short: as §1

purple nutsedge = experiment: Test B pre/postemergence purple nutsedge; type: in vivo, Cyperus rotundus; details: for Nutsedge plant response rating: scale of 0 to 10 where 0 is no effect and 10 is complete control
In short: as §1

rice = experiment: Test B flood test rice; type: in vivo, Oryza sativa
In short: (§2)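 Each value is a visual injury score relative to controls, with 10 meaning complete control and 0 no effect. Evaluation took place twelve to sixteen days after the 2-leaf-stage plants were treated and kept in the greenhouse.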

duck salad = experiment: Test B flood test duck salad; type: in vivo, Heteranthera limosa
In short: as §2

bamyardgrass = experiment: Test B flood test barnyardgrass; type: in vivo, Echinochloa crus-galli
In short: as §2

[1] = Postemergence, Rate 125 g/ha, scale 0 to 10, 0 is no effect, 10 is complete control
[2] = Preemergence, Rate 62 g/ha, scale 0 to 10 (0 no effect, 10 complete control)
[3] = Rate 500 g/ha, Postemergence, scale 0 to 10, 0 no effect, 10 complete control
[4] = Postemergence (flood test), Rate 125 g/ha, scale 0 to 10, 0 is no effect, 10 is complete control
[5] = Rate 62 g/ha, Postemergence (flood test species), scale of 0 to 10 where 0 is no effect and 10 is complete control
[6] = Rate 500 g/ha, listed under Postemergence (flood test species), scale 0 to 10, 0 no effect, 10 complete control

COCC(C)n1c(=O)on(C(=O)N(c2ccc(F)cc2F)C(C)C)c1=O (stereo not shown) [Compound 352]
Plant response rating, Cocklebur (cocklebur; [1]): 0
Plant response rating, Cocklebur (cocklebur; [2]): 0
Cocklebur plant response rating (0 to 10 scale) (cocklebur; Preemergence, Rate 125 g/ha): 0
Cocklebur plant response rating (cocklebur; Preemergence, Rate 250 g/ha): 0
Cocklebur plant response rating (cocklebur; Preemergence, Rate 500 g/ha): 0
Cocklebur plant response rating (cocklebur; Rate 62 g/ha, Postemergence): 0
Plant response rating, Cocklebur (cocklebur; [3]): 0
Plant response rating, Corn (corn; [1]): 0
Plant response rating, Corn (corn; [2]): 0
Corn plant response rating (0 to 10 scale) (corn; Preemergence, Rate 125 g/ha): 5
Corn plant response rating (corn; Preemergence, Rate 250 g/ha): 6
Corn plant response rating (corn; Preemergence, Rate 500 g/ha): 9
Corn plant response rating (corn; Rate 62 g/ha, Postemergence): 0
Plant response rating, Corn (corn; [3]): 6
Plant response rating, Crabgrass (crabgrass; [1]): 3
Plant response rating, Crabgrass (crabgrass; [2]): 9
Crabgrass plant response rating (0 to 10 scale) (crabgrass; Preemergence, Rate 125 g/ha): 10
Crabgrass plant response rating (crabgrass; Preemergence, Rate 250 g/ha): 10
Crabgrass plant response rating (crabgrass; Preemergence, Rate 500 g/ha): 10
Crabgrass plant response rating (crabgrass; Rate 62 g/ha, Postemergence): 1
Plant response rating, Crabgrass (crabgrass; [3]): 4
Plant response rating, Giant foxtail (giant foxtail; [1]): 2
Plant response rating, Giant foxtail (giant foxtail; [2]): 10
Giant foxtail plant response rating (0 to 10 scale) (giant foxtail; Preemergence, Rate 125 g/ha): 10
Giant foxtail plant response rating (giant foxtail; Preemergence, Rate 250 g/ha): 10
Giant foxtail plant response rating (giant foxtail; Preemergence, Rate 500 g/ha): 10
Giant foxtail plant response rating (giant foxtail; Rate 62 g/ha, Postemergence): 2
Plant response rating, Giant foxtail (giant foxtail; [3]): 9
Plant response rating, Morningglory (morningglory; [1]): 6
Plant response rating, Morningglory (morningglory; [2]): 0
Morningglory plant response rating (0 to 10 scale) (morningglory; Preemergence, Rate 125 g/ha): 0
Morningglory plant response rating (morningglory; Preemergence, Rate 250 g/ha): 0
Morningglory plant response rating (morningglory; Preemergence, Rate 500 g/ha): 2
Morningglory plant response rating (morningglory; Rate 62 g/ha, Postemergence): 0
Plant response rating, Morningglory (morningglory; [3]): 8
Plant response rating, Redroot pigweed (pigweed; [1]): 3
Redroot pigweed plant response rating (0 to 10 scale) (pigweed; Preemergence, Rate 125 g/ha): 3
Redroot pigweed plant response rating (pigweed; Preemergence, Rate 250 g/ha): 10
Redroot pigweed plant response rating (pigweed; Preemergence, Rate 500 g/ha): 10
Redroot pigweed plant response rating (pigweed; Rate 62 g/ha, Postemergence): 0
Plant response rating, Redroot pigweed (pigweed; [3]): 4
Plant response rating, Rape (rape; [1]): 0
Plant response rating, Rape (rape; [2]): 0
Rape plant response rating (0 to 10 scale) (rape; Preemergence, Rate 125 g/ha): 0
Rape plant response rating (rape; Preemergence, Rate 250 g/ha): 0
Rape plant response rating (rape; Preemergence, Rate 500 g/ha): 7
Rape plant response rating (rape; Rate 62 g/ha, Postemergence): 0
Plant response rating, Rape (rape; [3]): 0
Plant response rating, Soybean (soybean; [1]): 2
Plant response rating, Soybean (soybean; [2]): 0
Soybean plant response rating (0 to 10 scale) (soybean; Preemergence, Rate 125 g/ha): 0
Soybean plant response rating (soybean; Preemergence, Rate 250 g/ha): 0
Soybean plant response rating (soybean; Preemergence, Rate 500 g/ha): 2
Soybean plant response rating (soybean; Rate 62 g/ha, Postemergence): 2
Plant response rating, Soybean (soybean; [3]): 4
Plant response rating, Sugarbeets (sugar beet; [1]): 0
Plant response rating, Sugarbeets (sugar beet; [2]): 2
Sugarbeets plant response rating (0 to 10 scale) (sugar beet; Preemergence, Rate 125 g/ha): 3
Sugarbeets plant response rating (sugar beet; Preemergence, Rate 250 g/ha): 3
Sugarbeets plant response rating (sugar beet; Preemergence, Rate 500 g/ha): 7
Sugarbeets plant response rating (sugar beet; Rate 62 g/ha, Postemergence): 0
Plant response rating, Sugarbeets (sugar beet; [3]): 0
Plant response rating, Velvetleaf (velvetleaf; [1]): 0
Plant response rating, Velvetleaf (velvetleaf; [2]): 2
Velvetleaf plant response rating (0 to 10 scale) (velvetleaf; Preemergence, Rate 125 g/ha): 4
Velvetleaf plant response rating (velvetleaf; Preemergence, Rate 250 g/ha): 6
Velvetleaf plant response rating (velvetleaf; Preemergence, Rate 500 g/ha): 7
Velvetleaf plant response rating (velvetleaf; Rate 62 g/ha, Postemergence): 0
Plant response rating, Velvetleaf (velvetleaf; [3]): 3
Plant response rating, Wheat (wheat; [1]): 3
Plant response rating, Wheat (wheat; [2]): 0
Wheat plant response rating (0 to 10 scale) (wheat; Preemergence, Rate 125 g/ha): 0
Wheat plant response rating (wheat; Preemergence, Rate 250 g/ha): 2
Wheat plant response rating (wheat; Preemergence, Rate 500 g/ha): 6
Wheat plant response rating (wheat; Rate 62 g/ha, Postemergence): 0
Plant response rating, Wheat (wheat; [3]): 7
Plant response rating, Wild oats (wild oat; [1]): 0
Plant response rating, Wild oats (wild oat; [2]): 8
Wild oats plant response rating (0 to 10 scale) (wild oat; Preemergence, Rate 125 g/ha): 8
Wild oats plant response rating (wild oat; Preemergence, Rate 250 g/ha): 9
Wild oats plant response rating (wild oat; Preemergence, Rate 500 g/ha): 10
Wild oats plant response rating (wild oat; Rate 62 g/ha, Postemergence): 0
Plant response rating, Wild oats (wild oat; [3]): 7
Plant response rating, Nutsedge (purple nutsedge; [1]): 0
Plant response rating, Nutsedge (purple nutsedge; [2]): 0
Nutsedge plant response rating (0 to 10 scale) (purple nutsedge; Preemergence, Rate 125 g/ha): 0
Nutsedge plant response rating (purple nutsedge; Preemergence, Rate 250 g/ha): 0
Nutsedge plant response rating (purple nutsedge; Preemergence, Rate 500 g/ha): 0
Nutsedge plant response rating (purple nutsedge; Rate 62 g/ha, Postemergence): 0
Plant response rating, Nutsedge (purple nutsedge; [3]): 2
Plant response rating, Rice (rice; [4]): 3
Rice plant response rating (rice; [5]): 0
Plant response rating, Rice (rice; [6]): 3
Plant response rating, Ducksalad (duck salad; [4]): 0
Ducksalad plant response rating (duck salad; [5]): 0
Plant response rating, Ducksalad (duck salad; [6]): 2
Plant response rating, Barnyardgrass (bamyardgrass; [4]): 3
Barnyardgrass plant response rating (bamyardgrass; [5]): 0
Plant response rating, Barnyardgrass (bamyardgrass; Rate 250 g/ha, Postemergence (flood test species), scale of 0 to 10 where 0 is no effect and 10 is complete control): 3
Plant response rating, Barnyardgrass (bamyardgrass; [6]): 3
